Read-outs that look alike come from different tables or passages of the source. Where a SMILES comes first, the peptide text is derived from it.
Columns and labels:
TPO-R = target: T1, TPO-R (Homo sapiens, UniProt P40238); test: Competition binding assay (equilibrium binding ELISA, MBP-TPO156 tracer) on immobilized TPO-R
T1 construct: made in house
T1 sequence (P40238 26-491 limits assumed): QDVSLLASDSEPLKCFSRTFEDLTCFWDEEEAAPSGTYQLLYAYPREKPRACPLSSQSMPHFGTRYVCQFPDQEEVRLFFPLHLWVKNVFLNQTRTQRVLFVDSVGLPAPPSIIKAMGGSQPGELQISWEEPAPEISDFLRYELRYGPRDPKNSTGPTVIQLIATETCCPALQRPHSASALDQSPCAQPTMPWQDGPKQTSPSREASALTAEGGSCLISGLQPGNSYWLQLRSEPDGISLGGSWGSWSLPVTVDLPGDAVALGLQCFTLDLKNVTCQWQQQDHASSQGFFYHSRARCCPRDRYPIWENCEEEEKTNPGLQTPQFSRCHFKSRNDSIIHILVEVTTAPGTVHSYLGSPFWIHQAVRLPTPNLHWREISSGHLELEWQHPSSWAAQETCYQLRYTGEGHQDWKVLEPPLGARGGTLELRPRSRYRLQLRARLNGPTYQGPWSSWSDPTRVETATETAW
Description: A variety of methods can be used to evaluate IC50 values. For example, an equilibrium binding ELISA assay, using either MBP-TPO or lacI-peptide tracer, was used to determine whether the peptides inhibit the binding of TPO to the extracellular domain of the TPO receptor. Typically, the IC50 value were determined using the free peptide. The IC50 value can be determined using the free peptide, which optionally can be C-terminally amidated, or can be prepared as an ester or other carboxy amide.
Binding affinities of chemically synthesized peptides for TPO-R were measured in a competition binding assay. The wells of a microtiter plate were coated with 1 mg streptavidin, blocked with PBS/1% BSA, followed by 50 ng of biotinylated anti-receptor immobilizing antibody (Ab179). The wells were then treated with a 1:10 dilution of soluble TPO-R harvest. Various concentrations of peptide or peptide mimetic were mixed with a constant amount of a truncated form of TPO consisting of residues 1-156 fused to the C-terminus of maltose binding protein (MBP-TPO156). The peptide MBP-TPO156 mixtures were added to the TPO-R coated wells, incubated for 2 hours at 4° C. and then washed with PBS. The amount of MBP-TPO156 that was bound at equilibrium was measured by adding a rabbit anti-sera directed against MBP, followed by alkaline phosphatase conjugated goat anti-rabbit IgG. The amount of alkaline phosphatase in each well was then determined using standard methods.
The assay is conducted over a range of peptide concentrations and the results are graphed such that the y axis represents the amount of bound MBP-TPO156 and the x axis represents the concentration of peptide or peptide mimetic.

[1] = target: T2, human TPO-R (transfected Ba/F3 cells) (Homo sapiens, UniProt P40238); test: Thrombopoietin dependent cell proliferation assay (MTT), TPO-R transfected Ba/F3 cells; format: cell-based
T2 construct: Murine IL-3 dependent Ba/F3 cells were transfected with full length human TPO-R; expressed in transfected cells; host or cells: murine Ba/F3 cells
T2 sequence (P40238 26-635): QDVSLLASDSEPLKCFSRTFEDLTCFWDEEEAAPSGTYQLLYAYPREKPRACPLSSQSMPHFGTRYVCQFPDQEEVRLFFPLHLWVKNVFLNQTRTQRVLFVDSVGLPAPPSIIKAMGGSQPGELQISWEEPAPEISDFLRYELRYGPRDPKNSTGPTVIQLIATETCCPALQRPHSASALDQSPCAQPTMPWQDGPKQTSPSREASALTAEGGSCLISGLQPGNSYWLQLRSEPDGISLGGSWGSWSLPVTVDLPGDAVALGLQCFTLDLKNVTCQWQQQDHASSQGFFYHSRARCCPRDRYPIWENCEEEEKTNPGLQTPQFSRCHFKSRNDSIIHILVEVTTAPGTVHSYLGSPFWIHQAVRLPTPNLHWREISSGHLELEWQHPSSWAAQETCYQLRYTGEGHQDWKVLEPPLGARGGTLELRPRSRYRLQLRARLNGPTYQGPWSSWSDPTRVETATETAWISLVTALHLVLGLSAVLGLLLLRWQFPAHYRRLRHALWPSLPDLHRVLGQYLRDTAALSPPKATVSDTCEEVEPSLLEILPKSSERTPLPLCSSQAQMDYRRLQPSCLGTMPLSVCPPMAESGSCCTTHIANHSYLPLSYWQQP
Description: Bioactivity of the peptides can be measured using a thrombopoietin dependent cell proliferation assay. Murine IL-3 dependent Ba/F3 cells were transfected with full length human TPO-R. In the absence of IL-3 (WEHI-3 conditioned media), these cells are dependent on TPO for proliferation.
The cells were grown in complete RPMI-10 media, containing 10% WEHI-3 conditioned media, then washed twice in PBS, resuspended in media which lacked WEHI-3 conditioned media, and added to wells containing dilutions of peptide or TPO at 2×10^4 cells/well. The cells were incubated for 48 hours at 37° C. in a humidified 5% CO2 atmosphere and metabolic activity was assayed by the reduction of MTT to formazan, with absorbance at 570 nm measured on an ELISA plate reader.

[2] = Table 5, substitutions in cyclized compound, read-out: EC50 (nM) Cell Prolif.

`CC[C@H](C)[C@@H]1NC(=O)[C@H](Cc2c[nH]c3ccccc23)NC(=O)[C@H](CCC(=O)O)NC(=O)[C@H](CCCNC(=N)N)NC(=O)[C@H](CC(C)C)NC(=O)[C@H]([C@@H](C)O)NC(=O)[C@@H]2CCCN2C(=O)CNC(=O)[C@H](CC(=O)O)NC(=O)[C@H](C)NC(=O)[C@@H](NC(=O)CNC(=O)CN)CSSC[C@@H](C(=O)NCC(=O)NCC(=O)O)NC(=O)[C@H](Cc2ccccc2)NC(=O)[C@H](CO)NC1=O` [G G C A D G P T L R E W I S F C G G] (HELM PEPTIDE1{G.G.C.A.D.G.P.T.L.R.E.W.I.S.F.C.G.G}$PEPTIDE1,PEPTIDE1,3:R3-16:R3$$$V2.0; N-terminus and C-terminus assumed; bridges inferred) was tested, and the IC50 (TPO-R; Table 3, read-out: Affinity (IC50)) was no more than 500 nM.

`CC[C@H](C)[C@@H]1NC(=O)[C@@H](N)CSSC[C@@H](C(N)=O)NC(=O)[C@H](C)NC(=O)[C@H](CCCNC(=N)N)NC(=O)[C@H](C)NC(=O)[C@H](C)NC(=O)[C@H](CC(C)C)NC(=O)[C@H](Cc2c[nH]c3ccccc23)NC(=O)[C@H](CCC(N)=O)NC(=O)[C@H](CCCNC(=N)N)NC(=O)[C@H](CC(C)C)NC(=O)[C@H]([C@@H](C)O)NC(=O)[C@@H]2CCCN2C(=O)CNC(=O)[C@H](CCC(=O)O)NC1=O` (HELM PEPTIDE1{C.I.E.G.P.T.L.R.Q.W.L.A.A.R.A.C.[am]}$PEPTIDE1,PEPTIDE1,1:R3-16:R3$$$V2.0) showed an IC50 (TPO-R; Table 9, read-out: IC50) of no more than 500 nM.

`CC[C@H](C)[C@H](NC(C)=O)C(=O)N[C@@H](CCC(=O)O)C(=O)NCC(=O)N1CCC[C@H]1C(=O)N[C@H](C(=O)N[C@@H](CC(C)C)C(=O)N[C@@H](CCCNC(=N)N)C(=O)N[C@@H](CCC(N)=O)C(=O)N[C@@H](Cc1c[nH]c2ccccc12)C(=O)N[C@@H](CC(C)C)C(=O)N[C@@H](C)C(=O)N[C@@H](C)C(=O)N[C@@H](CCCNC(=N)N)C(=O)N[C@@H](C)C(=O)NCCCC[C@H](NC(=O)CCNC(=O)[C@H](C)NC(=O)[C@H](CCCNC(=N)N)NC(=O)[C@H](C)NC(=O)[C@H](C)NC(=O)[C@H](CC(C)C)NC(=O)[C@H](Cc1c[nH]c2ccccc12)NC(=O)[C@H](CCC(N)=O)NC(=O)[C@H](CCCNC(=N)N)NC(=O)[C@H](CC(C)C)NC(=O)[C@@H](NC(=O)[C@@H]1CCCN1C(=O)CNC(=O)[C@H](CCC(=O)O)NC(=O)[C@@H](NC(C)=O)[C@@H](C)CC)[C@@H](C)O)C(N)=O)[C@@H](C)O` showed an EC50 ([1]; Table 10, truncations of the dimer, read-out: EC50 (nM) Cell Prolif.) of less than 500 nM.

`CC[C@H](C)[C@@H]1NC(=O)[C@H](Cc2c[nH]c3ccccc23)NC(=O)[C@H](CCC(=O)O)NC(=O)[C@H](CCCNC(=N)N)NC(=O)[C@H](CC(C)C)NC(=O)[C@H]([C@@H](C)O)NC(=O)[C@@H]2CCCN2C(=O)CNC(=O)[C@H](CC(=O)O)NC(=O)[C@H](C)NC(=O)[C@@H](N)CSSC[C@@H](C(N)=O)NC(=O)[C@H](Cc2ccccc2)NC(=O)[C@H](C)N(C)C1=O` [S-(N-Me-Ala)] (HELM PEPTIDE1{C.A.D.G.P.T.L.R.E.W.I.[meA].F.C.[am]}$PEPTIDE1,PEPTIDE1,1:R3-14:R3$$$V2.0; N-terminus and C-terminus assumed) showed an EC50 [1, 2] of less than 200000 nM and an IC50 (TPO-R; Table 5, read-out: IC50) of no more than 200000 nM.

For `CC(C)C[C@H](NC(=O)[C@@H](NC(=O)[C@@H]1CCCN1C(=O)CNC(=O)[C@@H](NC(=O)[C@@H](N)Cc1c[nH]cn1)C(C)C)[C@@H](C)O)C(=O)N[C@@H](CCCNC(=N)N)C(=O)N[C@@H](CO)C(=O)NCC(=O)N[C@@H](CSSC[C@H](NC(=O)CNC(=O)[C@H](CO)NC(=O)[C@H](CCCNC(=N)N)NC(=O)[C@H](CC(C)C)NC(=O)[C@@H](NC(=O)[C@@H]1CCCN1C(=O)CNC(=O)[C@@H](NC(=O)[C@@H](N)Cc1c[nH]cn1)C(C)C)[C@@H](C)O)C(N)=O)C(N)=O` (HELM PEPTIDE1{H.V.G.P.T.L.R.S.G.C.[am]}|PEPTIDE2{H.V.G.P.T.L.R.S.G.C.[am]}$PEPTIDE1,PEPTIDE2,10:R3-10:R3$$$V2.0), the EC50 ([1]; Table 7, dimer compounds, read-out: EC50 (nM) Prolif.) was less than 200000 nM and the IC50 (TPO-R; Table 7, dimer compounds, read-out: IC50) was no more than 200000 nM.

Compound `CC[C@H](C)[C@@H]1NC(=O)[C@H](Cc2c[nH]c3ccccc23)NC(=O)[C@H](CCC(=O)O)NC(=O)[C@H](CCCNC(=N)N)NC(=O)[C@H](CC(C)C)NC(=O)[C@H]([C@@H](C)O)NC(=O)[C@@H]2CCCN2C(=O)CNC(=O)[C@H](CC(=O)O)NC(=O)[C@H](C)NC(=O)[C@@H](N)CSSC[C@@H](C(N)=O)NC(=O)CCCCNC1=O` [S,F-Ava] (HELM PEPTIDE1{C.A.D.G.P.T.L.R.E.W.I.[O=C(CCCCN[*:1])[*:2]].C.[am]}$PEPTIDE1,PEPTIDE1,1:R3-13:R3$$$V2.0; N-terminus and C-terminus assumed) has an EC50 [1, 2] of less than 200000 nM and an IC50 (TPO-R; Table 5, read-out: IC50) of no more than 500 nM.

Work on `CC[C@H](C)[C@@H]1NC(=O)[C@H](Cc2c[nH]c3ccccc23)NC(=O)[C@H](CCC(=O)O)NC(=O)[C@H](CCCNC(=N)N)NC(=O)[C@H](CC(C)C)NC(=O)[C@H]([C@@H](C)O)NC(=O)[C@@H]2CCCN2C(=O)CNC(=O)[C@H](CC(=O)O)NC(=O)[C@H](C)NC(=O)CSC[C@@H](C(N)=O)NC(=O)CCCCNC1=O` [S,F-Ava(thioether)] (HELM PEPTIDE1{[O=C(C[*:3])[*:2]].A.D.G.P.T.L.R.E.W.I.[O=C(CCCCN[*:1])[*:2]].C.[am]}$PEPTIDE1,PEPTIDE1,1:R3-13:R3$$$V2.0; N-terminus and C-terminus assumed) yielded an EC50 [1, 2] of less than 200000 nM and an IC50 (TPO-R; Table 5, read-out: IC50) of no more than 500 nM.

With `CC(C)C[C@@H]1NC(=O)[C@H](Cc2c[nH]c3ccccc23)NC(=O)[C@H](CCC(=O)O)NC(=O)[C@H](CCCNC(=N)N)NC(=O)[C@H](CC(C)C)NC(=O)[C@H]([C@@H](C)O)NC(=O)[C@@H](NC(=O)CNC(=O)CN)CSSC[C@@H](C(=O)NCC(=O)NCC(=O)O)NC(=O)[C@H](Cc2ccccc2)NC(=O)CNC(=O)CNC(=O)[C@H](Cc2c[nH]cn2)NC1=O` [G G C T L R E W L H G G F C G G] (HELM PEPTIDE1{G.G.C.T.L.R.E.W.L.H.G.G.F.C.G.G}$PEPTIDE1,PEPTIDE1,3:R3-14:R3$$$V2.0; N-terminus and C-terminus assumed; bridges inferred) the IC50 (TPO-R; read-out: IC50 value) was no more than 500 nM.

`CC[C@@H]1NC(=O)[C@H]([C@@H](C)CC)NC(=O)[C@H](Cc2c[nH]c3ccccc23)NC(=O)[C@H](CCC(=O)O)NC(=O)[C@H](CCCNC(=N)N)NC(=O)[C@H](CC(C)C)NC(=O)[C@H]([C@@H](C)O)NC(=O)[C@@H]2CCCN2C(=O)CNC(=O)[C@H](CC(=O)O)NC(=O)[C@H](C)NC(=O)[C@@H](N)CSSC[C@@H](C(N)=O)NC(=O)[C@H](Cc2ccccc2)NC1=O` [S-Abu] (HELM PEPTIDE1{C.A.D.G.P.T.L.R.E.W.I.[Abu].F.C.[am]}$PEPTIDE1,PEPTIDE1,1:R3-14:R3$$$V2.0; N-terminus and C-terminus assumed) gave an EC50 [1, 2] of less than 500 nM, an EC50 ([1]; Table 6, read-out: EC50 (nM) Cell Prolif.) of less than 500 nM and an IC50 (TPO-R; Table 5, read-out: IC50) of no more than 500 nM.

Compound `CC[C@H](C)[C@@H]1NC(=O)[C@H](Cc2c[nH]c3ccccc23)NC(=O)[C@H](CCC(=O)O)NC(=O)[C@H](CCCNC(=N)N)NC(=O)[C@H](CC(C)C)NC(=O)[C@H]([C@@H](C)O)NC(=O)[C@@H]2CCCN2C(=O)CNC(=O)[C@H](CC(=O)O)NC(=O)[C@H](C)NC(=O)[C@@H](N)CSSC[C@@H](C(N)=O)NC(=O)[C@H](Cc2cccnc2)NC(=O)[C@H](CO)NC1=O` [F-(Pyridylala)] (HELM PEPTIDE1{C.A.D.G.P.T.L.R.E.W.I.S.[O=C([C@H](Cc1cccnc1)N[*:1])[*:2]].C.[am]}$PEPTIDE1,PEPTIDE1,1:R3-14:R3$$$V2.0; N-terminus and C-terminus assumed) has an EC50 [1, 2] of less than 500 nM and an IC50 (TPO-R; Table 5, read-out: IC50) of no more than 500 nM.

Reference: US8227422B2, “Peptides and compounds that bind to a receptor” (Glaxosmithkline LLC, priority 1996, dated 2012)
